pIC50: −log10 of the molar value.
What was measured:
Balb/c mice [1] = experiment: Carrageenan air pouch model of acute inflammation, PGE2 release in vivo; settings: 50 mg/kg i.p. twice before carrageenan challenge; 4 hours after challenge; FIG. 6
Method: The effects of compound D-58 on PGE2 release in vivo were examined using a well characterized air pouch mouse model of acute inflammation (ref 36). An acute inflammatory response was induced in the air pouches of mice by the injection of carrageenan, a sulfated polysaccharide obtained from the alga Chondrus crispus (ref 36).
Balb/c (6-8 weeks old male) mice were utilized for these experiments. To create an air pouch, mice were injected with 3 ml sterile air subcutaneously using a 30 gauge needle on days 0 and 3 as described previously (refs 30 and 31). Six days after the initial injection of air, mice were injected with 2 ml of 1% carrageenan into the subcutaneous air pouch.
In order to study the effect of compound D-58, a group of mice was injected with the drug i.p. 60 minutes and 30 minutes before the carrageenan challenge. Control mice were treated with vehicle alone. After 4 hours of challenge with carrageenan, mice were sacrificed and the contents of the air pouches were harvested by lavage with 2 ml cold saline. The recovered fluids were centrifuged at 250×g for 15 minutes at 4° C. Supernatants were saved at −80° C. for the estimation the of prostaglandin E2 contents. […]
The data points represent the mean±SEM values (n=4-5 mice). *p<0.05 compared to vehicle-treated controls was determined by Student's t test.

[2] = molecular target: T1, Src family tyrosine kinase HCK (Homo sapiens, UniProt P08631); experiment: HCK kinase assay (immunoprecipitated from HCK-transfected COS-7 cells); assay type: biochemical; settings: FIG. 1C; 1 hour exposure
T1 construct: expressed in transfected cells; host or cells: COS-7 cells transfected with pSV7c-HCK; immunoprecipitated with anti-HCK antibody
Method: For HCK kinase assays, HCK-transfected COS-7 cells were used. The cloning and expression of HCK in COS-7 cells has been described previously (ref 18). The pSV7c-HCK plasmid was transfected into 2×10^6 COS-7 cells using Lipofectamine (GIBCO/BRL), and the cells were harvested 48 hours later. The cells were lysed in NP-40 buffer and HCK was immunoprecipitated from the whole cell lysates with an anti-HCK antibody. Kinase assays were performed following a 1 hour exposure of the purified (BTK, SYK) or immunoprecipitated (HCK) tyrosine kinases to the test compound, as described in detail elsewhere (refs 18-22). Following electrophoresis, kinase gels were dried onto Whatman 3M filter paper and subjected to phosphoimaging on a Molecular Imager (Bio-Rad, Hercules, Calif.) as well as autoradiography on film. […] For each drug concentration, a BTK or SYK kinase activity index was determined by comparing the ratios of the kinase activity in phosphorimager units (PIU) and density of the protein bands in densitometric scanning units (DSU) to those of the baseline sample and using the formula: Activity Index=[PIU of kinase band/DSU of BTK/SYK protein band]test sample: [PIU of kinase band/DSU of BTK/SYK protein band]baseline control sample.

Balb/c mice [3] = experiment: IgE-dependent passive cutaneous anaphylaxis (Evans blue dye extravasation); assay type: in vivo; settings: 25 mg/kg i.p. twice at 1 hour intervals prior to antigen challenge; 30 minutes after challenge; vehicle 0.64±0.08
Method: The in vivo biologic activity of compound D-58 was examined in a well characterized murine model of passive cutaneous anaphylaxis. In order to induce passive cutaneous anaphylaxis, left ears of Balb/c mice were sensitized with 50 μg DNP-IgE intradermally. Right ears were injected with equal volumes of saline. Dorsal sides of the ears of Balb/c mice were injected intradermally with 50 μg of DNP-IgE (left ears) or PBS (right ears) using a 30-gauge needle (ref 28). Twenty hours later, mice were challenged with 100 μg antigen (DNP-BSA) in 200 μl 2% Evans blue dye intravenously. Control mice were given PBS (but not antigen) intravenously with 2% Evans blue. For quantitation of Evans blue dye extravasation as a measure of anaphylaxis-associated vascular hyperpermeability, 8 mm^2 skin specimens were removed from the ears of mice, minced in 2 ml formamide and incubated in a 80° C. water bath for 2 hours to extract the dye. The absorbance was read at 570 nm using a spectrophotometer.
For assessment of the vascular leak, animals were sacrificed 30 minutes after the antigen challenge. The plasma exudation was assessed by quantitation of the amount of Evan's blue dye extravasated into the ear skin 30 minutes after the antigen challenge. […]

T1 sequence (P08631 whole entry): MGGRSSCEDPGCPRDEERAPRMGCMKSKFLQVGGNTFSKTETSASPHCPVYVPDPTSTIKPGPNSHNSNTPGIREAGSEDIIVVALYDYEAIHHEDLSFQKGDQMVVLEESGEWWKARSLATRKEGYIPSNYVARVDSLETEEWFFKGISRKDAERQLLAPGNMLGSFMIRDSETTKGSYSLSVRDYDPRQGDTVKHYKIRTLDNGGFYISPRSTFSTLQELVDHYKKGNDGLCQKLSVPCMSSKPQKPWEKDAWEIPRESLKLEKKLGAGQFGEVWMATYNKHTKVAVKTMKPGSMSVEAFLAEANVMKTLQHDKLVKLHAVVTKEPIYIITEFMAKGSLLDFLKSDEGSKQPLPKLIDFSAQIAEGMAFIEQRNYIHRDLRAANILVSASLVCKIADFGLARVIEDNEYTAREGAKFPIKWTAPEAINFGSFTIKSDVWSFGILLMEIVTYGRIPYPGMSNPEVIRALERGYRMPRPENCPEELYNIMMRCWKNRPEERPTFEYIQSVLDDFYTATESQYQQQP

Structure (SMILES): COc1ccc(CC(=O)c2c(O)cc(O)cc2O)cc1 [Compound D-58]
- decrease of PGE2 release into the air pouch (Balb/c mice [1]): approximately 50%
- pIC50 [2]: < 3.70
- Evans blue dye extravasation in DNP-IgE injected ears, Absorbance at 570 nm (Balb/c mice [3]): 0.26±0.02

From patent publication US6391921B1 (priority 2000, dated 2002)
